# In PubChem BioAssay (NCI):
#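 All cell lines were grown in 96-well plates and treated with compound for 48 hours. GI50 marks 50% less growth. At the TGI there is no net growth.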
# Experiments:
# Experiment in all cases: NCI-60 cell line screen, 48 h
# SNB-19 CNS = test system: SNB-19 CNS
# CCRF-CEM leukemia = test system: CCRF-CEM leukemia
# MDA-MB-435 = test system: MDA-MB-435
# U251 CNS = test system: U251 CNS
# TK-10 renal = test system: TK-10 renal
# M14 melanoma = test system: M14 melanoma
# SK-OV-3 ovarian = test system: SK-OV-3 ovarian
# OVCAR-8 ovarian = test system: OVCAR-8 ovarian
# MDA-MB-231 breast = test system: MDA-MB-231 breast
# UO-31 renal = test system: UO-31 renal
# SK-MEL-5 melanoma = test system: SK-MEL-5 melanoma
# HOP-92 NSCLC = test system: HOP-92 NSCLC
# DU-145 prostate = test system: DU-145 prostate
# IGROV1 ovarian = test system: IGROV1 ovarian
# SF-268 CNS = test system: SF-268 CNS
# SK-MEL-28 melanoma = test system: SK-MEL-28 melanoma
# UACC-62 melanoma = test system: UACC-62 melanoma
# HL-60(TB) leukemia = test system: HL-60(TB) leukemia
# NCI-H226 lung = test system: NCI-H226 lung
# SK-MEL-2 melanoma = test system: SK-MEL-2 melanoma
# MOLT-4 leukemia = test system: MOLT-4 leukemia
# ACHN renal = test system: ACHN renal
# 786-0 renal = test system: 786-0 renal
# HCC-2998 colon = test system: HCC-2998 colon
# RPMI-8226 leukemia = test system: RPMI-8226 leukemia
# KM12 colon = test system: KM12 colon
# SF-539 CNS = test system: SF-539 CNS
# HT29 colon = test system: HT29 colon
# EKVX NSCLC = test system: EKVX NSCLC
# T-47D breast = test system: T-47D breast
# NCI-H522 lung = test system: NCI-H522 lung
# HS 578T breast = test system: HS 578T breast
# PC-3 prostate = test system: PC-3 prostate
# MCF7 breast = test system: MCF7 breast
# NCI/ADR-RES ovarian = test system: NCI/ADR-RES ovarian
# OVCAR-5 ovarian = test system: OVCAR-5 ovarian
# CAKI-1 renal = test system: CAKI-1 renal
# SF-295 CNS = test system: SF-295 CNS
# BT-549 breast = test system: BT-549 breast
# COLO 205 colon = test system: COLO 205 colon
# OVCAR-3 ovarian = test system: OVCAR-3 ovarian
# NCI-H23 lung = test system: NCI-H23 lung
# SNB-75 CNS = test system: SNB-75 CNS
# NCI-H460 lung = test system: NCI-H460 lung
# K-562 leukemia = test system: K-562 leukemia
# HCT-15 colon = test system: HCT-15 colon
# SW-620 colon = test system: SW-620 colon
# LOX IMVI melanoma = test system: LOX IMVI melanoma
# A498 renal = test system: A498 renal
# UACC-257 melanoma = test system: UACC-257 melanoma
# MALME-3M melanoma = test system: MALME-3M melanoma
# RXF 393 renal = test system: RXF 393 renal
# HOP-62 NSCLC = test system: HOP-62 NSCLC
# A549 NSCLC = test system: A549 NSCLC
# HCT-116 colon = test system: HCT-116 colon
structure (smiles),measurement,setting,value
COC(=O)c1ccc2c(c1)[n+](=O)c(C(C)=O)c(C(F)(F)F)n2[O-],GI50,SNB-19 CNS,3120 nM
same,TGI,SNB-19 CNS,9120 nM
same,GI50,CCRF-CEM leukemia,4620 nM
same,TGI,CCRF-CEM leukemia,> 100000 nM
same,GI50,MDA-MB-435,1750 nM
same,TGI,MDA-MB-435,3600 nM
same,GI50,U251 CNS,1800 nM
same,TGI,U251 CNS,3250 nM
same,GI50,TK-10 renal,2770 nM
same,TGI,TK-10 renal,6050 nM
same,GI50,M14 melanoma,1750 nM
same,TGI,M14 melanoma,3200 nM
same,GI50,SK-OV-3 ovarian,2220 nM
same,TGI,SK-OV-3 ovarian,4480 nM
same,GI50,OVCAR-8 ovarian,2870 nM
same,TGI,OVCAR-8 ovarian,8280 nM
same,GI50,MDA-MB-231 breast,1980 nM
same,TGI,MDA-MB-231 breast,3880 nM
same,GI50,UO-31 renal,1710 nM
same,TGI,UO-31 renal,3150 nM
same,GI50,SK-MEL-5 melanoma,1690 nM
same,TGI,SK-MEL-5 melanoma,3060 nM
same,GI50,HOP-92 NSCLC,1480 nM
same,TGI,HOP-92 NSCLC,3140 nM
same,GI50,DU-145 prostate,1830 nM
same,TGI,DU-145 prostate,3230 nM
same,GI50,IGROV1 ovarian,1750 nM
same,TGI,IGROV1 ovarian,3390 nM
same,GI50,SF-268 CNS,1760 nM
same,TGI,SF-268 CNS,3240 nM
same,GI50,SK-MEL-28 melanoma,4310 nM
same,TGI,SK-MEL-28 melanoma,13200 nM
same,GI50,UACC-62 melanoma,1710 nM
same,TGI,UACC-62 melanoma,3140 nM
same,GI50,HL-60(TB) leukemia,1940 nM
same,TGI,HL-60(TB) leukemia,7870 nM
same,GI50,NCI-H226 lung,1950 nM
same,TGI,NCI-H226 lung,3650 nM
same,GI50,SK-MEL-2 melanoma,2230 nM
same,TGI,SK-MEL-2 melanoma,4800 nM
same,GI50,MOLT-4 leukemia,2950 nM
same,TGI,MOLT-4 leukemia,17600 nM
same,GI50,ACHN renal,1760 nM
same,TGI,ACHN renal,3240 nM
same,GI50,786-0 renal,1910 nM
same,TGI,786-0 renal,3370 nM
same,GI50,HCC-2998 colon,1780 nM
same,TGI,HCC-2998 colon,3180 nM
same,GI50,RPMI-8226 leukemia,2230 nM
same,TGI,RPMI-8226 leukemia,6340 nM
same,GI50,KM12 colon,1760 nM
same,TGI,KM12 colon,3190 nM
same,GI50,SF-539 CNS,1850 nM
same,TGI,SF-539 CNS,3360 nM
same,GI50,HT29 colon,1730 nM
same,TGI,HT29 colon,3250 nM
same,GI50,EKVX NSCLC,1940 nM
same,TGI,EKVX NSCLC,4350 nM
same,GI50,T-47D breast,2060 nM
same,TGI,T-47D breast,4200 nM
same,GI50,NCI-H522 lung,1660 nM
same,TGI,NCI-H522 lung,3280 nM
same,GI50,HS 578T breast,2370 nM
same,TGI,HS 578T breast,5840 nM
same,GI50,PC-3 prostate,1640 nM
same,TGI,PC-3 prostate,3630 nM
same,GI50,MCF7 breast,1760 nM
same,TGI,MCF7 breast,3370 nM
same,GI50,NCI/ADR-RES ovarian,2480 nM
same,TGI,NCI/ADR-RES ovarian,6410 nM
same,GI50,OVCAR-5 ovarian,1670 nM
same,TGI,OVCAR-5 ovarian,3110 nM
same,GI50,CAKI-1 renal,1940 nM
same,TGI,CAKI-1 renal,5070 nM
same,GI50,SF-295 CNS,1330 nM
same,TGI,SF-295 CNS,2780 nM
same,GI50,BT-549 breast,2070 nM
same,TGI,BT-549 breast,4510 nM
same,GI50,COLO 205 colon,1950 nM
same,TGI,COLO 205 colon,3950 nM
same,GI50,OVCAR-3 ovarian,1820 nM
same,TGI,OVCAR-3 ovarian,3270 nM
same,GI50,NCI-H23 lung,1810 nM
same,TGI,NCI-H23 lung,3380 nM
same,GI50,SNB-75 CNS,1400 nM
same,TGI,SNB-75 CNS,2710 nM
same,GI50,NCI-H460 lung,1810 nM
same,TGI,NCI-H460 lung,3450 nM
same,GI50,K-562 leukemia,2310 nM
same,TGI,K-562 leukemia,7700 nM
same,GI50,HCT-15 colon,1830 nM
same,TGI,HCT-15 colon,3520 nM
same,GI50,SW-620 colon,1950 nM
same,TGI,SW-620 colon,3830 nM
same,GI50,LOX IMVI melanoma,1700 nM
same,TGI,LOX IMVI melanoma,3200 nM
same,GI50,A498 renal,1720 nM
same,TGI,A498 renal,3300 nM
same,GI50,UACC-257 melanoma,1820 nM
same,TGI,UACC-257 melanoma,3310 nM
same,GI50,MALME-3M melanoma,1960 nM
same,TGI,MALME-3M melanoma,3790 nM
same,GI50,RXF 393 renal,2040 nM
same,TGI,RXF 393 renal,3860 nM
same,GI50,HOP-62 NSCLC,1940 nM
same,TGI,HOP-62 NSCLC,3690 nM
same,GI50,A549 NSCLC,1960 nM
same,TGI,A549 NSCLC,3700 nM
same,GI50,HCT-116 colon,1450 nM
same,TGI,HCT-116 colon,2760 nM
